{"source": "patent US20100150884A1", "about": "“Anticancer Agent to Be Combined with Telomelysin” (priority 2005, published 2010)", "key": {"[1]": {"tested_on": "various cancer cells cultured in vitro", "assay": "XTT assay, combined effect of Telomelysin and anticancer agent, cell strains not named individually", "format": "cell-based, human", "description": "(§1) Telomelysin was infected to the following various cancer cells cultured in vitro at the concentrations of 0 (Mock), 0.1 or 1 MOI (multiplicity of infection). The cells used were as follows.\n(§2) Specifically, 1×10^3 cells from each of the above cell strains were plated in a 96-well plate. After 24 hours, cells were counted and the virus was added to the culture broth at a concentration of 0.1 MOI or 1 MOI.\n(§3) On the next day, docetaxel was added to the virus-infected cell culture broth at various concentrations (control, 0.1 nM, 1.0 nM, 10.0 nM and 100.0 nM).\n(§4) On day 5 of infection, XTT assay was performed using a kit (Roche Diagnostics). Briefly, the culture broth was removed from the plate. A reaction solution containing XTT reagent was prepared and added to the plate. Cells were cultured for about 4 hours. Then, absorbance was measured with a microtiter plate (ELISA) reader, and the number of viable cells was calculated to thereby confirm antitumor effect.\nXTT assays were performed in the same manner as described above using microtubule inhibitor vinorelbine and topoisomerase I inhibitor SN-38 (CPT-11 metabolite) as anticancer agents combined with Telomelysin."}, "[2]": {"tested_on": "H1299 cells", "assay": "XTT assay, combined effect of Telomelysin and anticancer agent", "format": "cell-based, human", "settings": "low concentrations of docetaxel combined with Telomelysin 0.1 MOI; day 5 of infection", "description": "as §1, §2, §3, §4"}, "[3]": {"tested_on": "H226Br cells", "assay": "XTT assay, combined effect of Telomelysin and anticancer agent", "format": "cell-based, human", "description": "as §1, §2, §3, §4"}, "[4]": {"tested_on": "HepG2 cells", "assay": "XTT assay, combined effect of Telomelysin and anticancer agent", "format": "cell-based, human", "settings": "docetaxel combined with Telomelysin; day 5 of infection", "description": "as §1, §2, §3, §4"}, "[5]": {"tested_on": "LNCaP cells", "assay": "XTT assay, combined effect of Telomelysin and anticancer agent", "format": "cell-based, human", "settings": "docetaxel combined with Telomelysin; day 5 of infection", "description": "as §1, §2, §3, §4"}, "[6]": {"tested_on": "T.Tn cells", "assay": "XTT assay, combined effect of Telomelysin and anticancer agent", "format": "cell-based, human", "description": "as §1, §2, §3, §4"}, "[7]": {"tested_on": "human lung cancer cell H1299 and human large bowel cancer cell SW620", "assay": "Quantitative real-time PCR of E1A gene, proliferation/replication of Telomelysin", "format": "cell-based", "settings": "Telomelysin 0.1 MOI in combination with docetaxel versus alone", "description": "How the proliferation of Telomelysin would be affected when an anticancer agent acting on microtubule is combined with Telomelysin was analyzed by quantitative real-time PCR.\nHuman lung cancer cell H1299 and human large bowel cancer cell SW620 were infected with Telomelysin at 0.1 MOI for 2 hours. Two hours thereafter, docetaxel was administered. At 12, 24, 36, 48 and 60 hours after the infection, cells were harvested. DNA contained in the cells and in the supernatant was extracted separately. Real-time PCR was performed using primers targeting the E1A gene carried by Telomelysin, to thereby analyze viral proliferation/replication quantitatively. Specifically, 2 μl of DNA extract was added to 18 μl of PCR solution. PCR was performed using E1A primers under the following conditions.\nComposition of the PCR solution: • 1×LC FastStart DNA Master SYBR Green I • 3 mM MgCl2 • 0.5 μM each primer Reaction conditions: • 95° C., 10 min • (95° C., 10 sec; 60° C., 15 sec; 72° C., 8 sec)×40 cycles • 70° C., 15 sec • 40° C., 30 sec"}, "[8]": {"tested_on": "tumor cells", "assay": "Cell cycle analysis with PI (propidium iodide) using flow cytometry", "format": "cell-based", "settings": "for sub G0/G1: after G2/M arrest; for cell cycle arrest: began 12 hours after administration", "excerpt": "The influence of the substance having an antitumor effect and the recombinant virus used in combination in the pharmaceutical composition of the present invention upon the cell cycle of target cells may be examined, for example, by analyzing cell cycle with a nuclear dye PI (propidium iodide) using flow cytometry.\nAs a result of cell death, cell membranes become unable to retain their states and nuclei are readily stained with a nuclear dye such as PI mentioned above. Therefore, DNA content and cell cycle can be judged from the results of nuclear staining with PI. Here, it should be note that when ratios of S phase and G2/M phase in cell cycle are high in tumor cells, the malignancy is judged to be high.\nCell cycle was analyzed with PI (propidium iodide) using flow cytometry."}, "[9]": {"tested_on": "H1299 lung cancer cell tumor", "assay": "In vivo antitumor effect, H1299 subcutaneous tumor, tumor size", "set-up": "species or system nude mice", "settings": "combination: Telomelysin intratumoral 1×10^7 pfu and docetaxel 12.5 mg/kg intraperitoneal, three times", "description": "H1299 was inoculated subcutaneously at the back of 5-week old nude mice. One, three and five days after the tumor reached 5-10 mm in size, Telomelysin was administered intratumorally at a dose of 1×10^7 pfu/50 μl/mouse and docetaxel was administered at a dose of 12.5 mg/kg intraperitoneally both three times in the total. As a control, PBS was administered intratumorally and intraperitoneally. Tumor size was measured in every three days."}, "[10]": {"tested_on": "H1299 tumor tissue", "assay": "HE staining of tumor tissue after intratumoral administration", "format": "in vivo, nude mice", "settings": "Telomelysin in combination with docetaxel; six days after the final administration", "description": "(§5) H1299 was inoculated subcutaneously at the back of 5-week old nude mice. When the tumor reached 5-10 mm in size, Telomelysin was administered intratumorally. Six days after the final administration, tumor tissue and liver were stained with HE as described below. Briefly, tissue sections were prepared, deparaffinized and washed with water. Then, distilled water was fed to the tissue section. Hematoxylin solution was added thereto and left stationary for 20 minutes. Then, the section was rinsed with water lightly. The resultant section was fractionated with 1% hydrochloric acid/70% alcohol, followed by color development. Then, the tissue section was washed with water for 10 minutes, passed through 80% ethanol, and dipped in eosin solution for 10 minutes. Subsequently, the tissue section was washed with water lightly, dehydrated, cleared and mounted to thereby perform HE staining."}, "[11]": {"tested_on": "liver", "assay": "HE staining of liver after intratumoral administration", "format": "in vivo, nude mice", "settings": "Telomelysin in combination with docetaxel; six days after the final administration", "description": "as §5"}, "[12]": {"settings": "docetaxel combined with Telomelysin, day 5 of infection"}, "[13]": {"settings": "Telomelysin and docetaxel in combination"}}}
{"smiles": "CCc1c2c(nc3ccc(O)cc13)-c1cc3c(c(=O)n1C2)COC(=O)[C@]3(O)CC", "note": "[SN-38]", "values": [{"measurement": "combined effect (antitumor effect, viable cells)", "setting": "[1]; SN-38 combined with Telomelysin, when the concentration of SN-38 was low", "value": "combined effect was observed"}, {"measurement": "sensitivity of cell strains to SN-38", "setting": "[1]; any of the cell strains tested", "value": "has sensitivity"}]}
{"smiles": "CC(=O)O[C@@]12CO[C@@H]1C[C@H](O)[C@@]1(C)C(=O)[C@H](O)C3=C(C)[C@@H](OC(=O)[C@H](O)[C@@H](NC(=O)OC(C)(C)C)c4ccccc4)C[C@@](O)([C@@H](OC(=O)c4ccccc4)[C@H]21)C3(C)C", "note": "[docetaxel]", "values": [{"measurement": "combined effect (antitumor effect, viable cells)", "setting": "[2]", "value": "especially remarkable"}, {"measurement": "combined effect (antitumor effect, viable cells)", "setting": "[3]; [12]", "value": "evident combined effect was not observed"}, {"measurement": "sensitivity of cell strain to docetaxel", "setting": "[3]; docetaxel itself", "value": "sensitivity to docetaxel itself"}, {"measurement": "combined effect (antitumor effect, viable cells)", "setting": "[4]", "value": "evident combined effect was not observed"}, {"measurement": "combined effect (antitumor effect, viable cells)", "setting": "[5]", "value": "evident combined effect was not observed"}, {"measurement": "combined effect (antitumor effect, viable cells)", "setting": "[6]; [12]", "value": "evident combined effect was not observed"}, {"measurement": "sensitivity of cell strain to docetaxel", "setting": "[6]; docetaxel itself", "value": "sensitivity to docetaxel itself"}, {"measurement": "proliferation efficiency of Telomelysin diffused in supernatant (E1A DNA)", "setting": "[7]", "value": "equal proliferation efficiency"}, {"measurement": "apoptosis observed", "setting": "[8]; [13]", "value": "apoptosis (DNA fragmentation)"}, {"measurement": "sub G0/G1", "setting": "[8]; [13]", "value": "increased gradually"}, {"measurement": "cell cycle arrest", "setting": "[8]; [13]", "value": "G2/M arrest"}, {"measurement": "apoptosis observed", "setting": "[8]; docetaxel administered alone", "value": "apoptosis (DNA fragmentation)"}, {"measurement": "sub G0/G1", "setting": "[8]; docetaxel administered alone", "value": "increased gradually"}, {"measurement": "cell cycle arrest", "setting": "[8]; docetaxel administered alone", "value": "G2/M arrest"}, {"measurement": "antitumor effect (tumor size) compared to the control group and single use groups", "setting": "[9]", "value": "still more significant antitumor effect"}, {"measurement": "hyaline degeneration of tumor cells", "setting": "[10]", "value": "observed in a wide range"}, {"measurement": "toxicity in liver tissue", "setting": "[11]", "value": "Toxicity was not observed"}]}
{"smiles": "CCC1=C[C@@H]2CN(C1)Cc1c([nH]c3ccccc13)[C@@](C(=O)OC)(c1cc3c(cc1OC)N(C)[C@H]1[C@@](O)(C(=O)OC)[C@H](OC(C)=O)[C@]4(CC)C=CCN5CC[C@]31[C@@H]54)C2", "note": "[vinorelbine]", "values": [{"measurement": "combined effect (antitumor effect, viable cells)", "setting": "[1]; vinorelbine combined with Telomelysin", "value": "combined effect almost equal to that shown by docetaxel"}]}
